# Reference: PMC8909834, “An Orally Bioavailable and Highly Efficacious Inhibitor of CDK9/FLT3 for the Treatment of Acute Myeloid Leukemia” (Cancers, 2022)
# How the values were obtained:
# Assay in all cases: Kinase Hotspot radiolabel assay
# Type in all cases: biochemical
# Details in all cases: read-out: % Residual Activity
# Aurora A = target: T1, Aurora A (Homo sapiens, UniProt O14965)
# T1 construct: purchased Reaction Biology Corporation (Kinase HotSpot)
# How it was run: (§1)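 Percent inhibition is from a radiometric Hotspot assay at 1 µM compound. The panel spans 369 kinases, and Ki measurement follows for those inhibited over 90%.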
# CDK17/cyclin Y (PCTK2) = target: T2, CDK17/cyclin Y (PCTK2) (Homo sapiens, UniProt Q00537)
# T2 construct: purchased Reaction Biology Corporation (Kinase HotSpot)
# T2 sequence (Q00537 whole entry): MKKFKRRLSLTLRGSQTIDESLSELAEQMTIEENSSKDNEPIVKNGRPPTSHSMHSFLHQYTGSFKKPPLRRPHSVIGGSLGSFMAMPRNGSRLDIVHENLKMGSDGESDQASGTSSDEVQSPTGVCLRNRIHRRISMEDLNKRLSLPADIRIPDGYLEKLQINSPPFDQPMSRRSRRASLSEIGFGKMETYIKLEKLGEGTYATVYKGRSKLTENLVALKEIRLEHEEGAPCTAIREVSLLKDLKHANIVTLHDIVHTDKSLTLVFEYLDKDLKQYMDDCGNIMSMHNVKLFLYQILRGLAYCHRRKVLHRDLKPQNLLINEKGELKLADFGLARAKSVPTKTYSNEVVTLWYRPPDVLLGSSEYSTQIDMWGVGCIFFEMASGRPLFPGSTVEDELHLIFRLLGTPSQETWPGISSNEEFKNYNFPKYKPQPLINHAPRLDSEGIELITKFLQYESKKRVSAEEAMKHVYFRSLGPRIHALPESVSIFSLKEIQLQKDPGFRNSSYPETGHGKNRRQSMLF
# T2 sequence (Q8ND76 whole entry partner): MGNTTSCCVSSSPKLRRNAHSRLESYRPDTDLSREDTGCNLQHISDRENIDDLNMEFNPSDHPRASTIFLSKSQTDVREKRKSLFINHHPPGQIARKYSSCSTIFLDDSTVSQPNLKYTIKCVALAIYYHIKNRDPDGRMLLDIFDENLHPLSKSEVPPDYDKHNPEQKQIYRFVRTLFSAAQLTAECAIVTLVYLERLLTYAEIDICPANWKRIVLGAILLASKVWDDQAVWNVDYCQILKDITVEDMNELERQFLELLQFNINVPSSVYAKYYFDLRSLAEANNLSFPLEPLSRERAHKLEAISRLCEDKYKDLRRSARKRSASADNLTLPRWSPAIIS
# How it was run: as §1
# CDK4/cyclin D1 = target: T3, CDK4/cyclin D1 (Homo sapiens, UniProt P11802)
# T3 construct: purchased Reaction Biology Corporation (Kinase HotSpot)
# How it was run: as §1
# CHK2 = target: T4, CHK2 (Homo sapiens, UniProt O96017)
# T4 construct: purchased Reaction Biology Corporation (Kinase HotSpot)
# How it was run: as §1
# CK1g2 = target: T5, CK1g2 (Homo sapiens, UniProt P78368)
# T5 construct: purchased Reaction Biology Corporation (Kinase HotSpot)
# How it was run: as §1
# CK1g3 = target: T6, CK1g3 (Homo sapiens, UniProt Q9Y6M4)
# T6 construct: purchased Reaction Biology Corporation (Kinase HotSpot)
# How it was run: as §1
# CLK3 = target: T7, CLK3 (Homo sapiens, UniProt P49761)
# T7 construct: purchased Reaction Biology Corporation (Kinase HotSpot)
# How it was run: as §1
# EPHA3 = target: T8, EPHA3 (Homo sapiens, UniProt P29320)
# T8 construct: purchased Reaction Biology Corporation (Kinase HotSpot)
# How it was run: as §1
# EPHA7 = target: T9, EPHA7 (Homo sapiens, UniProt Q15375)
# T9 construct: purchased Reaction Biology Corporation (Kinase HotSpot)
# How it was run: as §1
# ERBB2/HER2 = target: T10, ERBB2/HER2 (Homo sapiens, UniProt P04626)
# T10 construct: purchased Reaction Biology Corporation (Kinase HotSpot)
# How it was run: as §1
# FER = target: T11, FER (Homo sapiens, UniProt P16591)
# T11 construct: purchased Reaction Biology Corporation (Kinase HotSpot)
# How it was run: as §1
# GRK6 = target: T12, GRK6 (Homo sapiens, UniProt P43250)
# T12 construct: purchased Reaction Biology Corporation (Kinase HotSpot)
# How it was run: as §1
# IKKa/CHUK = target: T13, IKKa/CHUK (Homo sapiens, UniProt O15111)
# T13 construct: purchased Reaction Biology Corporation (Kinase HotSpot)
# How it was run: as §1
# JAK2 = target: T14, JAK2 (Homo sapiens, UniProt O60674)
# T14 construct: purchased Reaction Biology Corporation (Kinase HotSpot)
# How it was run: as §1
# LCK = target: T15, LCK (Homo sapiens, UniProt P06239)
# T15 construct: purchased Reaction Biology Corporation (Kinase HotSpot)
# How it was run: as §1
# MAPKAPK5/PRAK = target: T16, MAPKAPK5/PRAK (Homo sapiens, UniProt Q8IW41)
# T16 construct: purchased Reaction Biology Corporation (Kinase HotSpot)
# How it was run: as §1
# MEKK1 = target: T17, MEKK1 (Homo sapiens, UniProt Q13233)
# T17 construct: purchased Reaction Biology Corporation (Kinase HotSpot)
# How it was run: as §1
# MLCK/MYLK = target: T18, MLCK/MYLK (Homo sapiens, UniProt Q15746)
# T18 construct: purchased Reaction Biology Corporation (Kinase HotSpot)
# How it was run: as §1
# MRCKb/CDC42BPB = target: T19, MRCKb/CDC42BPB (Homo sapiens, UniProt Q9Y5S2)
# T19 construct: purchased Reaction Biology Corporation (Kinase HotSpot)
# How it was run: as §1
# MST1/STK4 = target: T20, MST1/STK4 (Homo sapiens, UniProt Q13043)
# T20 construct: purchased Reaction Biology Corporation (Kinase HotSpot)
# T20 sequence (Q13043 whole entry): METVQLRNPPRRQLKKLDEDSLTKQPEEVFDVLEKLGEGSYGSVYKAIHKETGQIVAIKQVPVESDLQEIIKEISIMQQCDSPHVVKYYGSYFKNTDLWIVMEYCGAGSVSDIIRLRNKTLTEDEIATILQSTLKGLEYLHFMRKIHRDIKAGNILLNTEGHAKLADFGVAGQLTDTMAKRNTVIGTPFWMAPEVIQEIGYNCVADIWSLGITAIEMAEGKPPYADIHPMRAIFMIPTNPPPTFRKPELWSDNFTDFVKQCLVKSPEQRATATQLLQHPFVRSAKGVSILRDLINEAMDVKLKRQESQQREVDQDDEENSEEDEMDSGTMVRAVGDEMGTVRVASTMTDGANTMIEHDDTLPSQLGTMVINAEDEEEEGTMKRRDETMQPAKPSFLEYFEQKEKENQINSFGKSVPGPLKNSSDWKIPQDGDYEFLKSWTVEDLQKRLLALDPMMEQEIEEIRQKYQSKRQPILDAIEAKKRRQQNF
# How it was run: as §1
# NEK2 = target: T21, NEK2 (Homo sapiens, UniProt P51955)
# T21 construct: purchased Reaction Biology Corporation (Kinase HotSpot)
# How it was run: as §1
# NEK9 = target: T22, NEK9 (Homo sapiens, UniProt Q8TD19)
# T22 construct: purchased Reaction Biology Corporation (Kinase HotSpot)
# T22 sequence (Q8TD19 whole entry): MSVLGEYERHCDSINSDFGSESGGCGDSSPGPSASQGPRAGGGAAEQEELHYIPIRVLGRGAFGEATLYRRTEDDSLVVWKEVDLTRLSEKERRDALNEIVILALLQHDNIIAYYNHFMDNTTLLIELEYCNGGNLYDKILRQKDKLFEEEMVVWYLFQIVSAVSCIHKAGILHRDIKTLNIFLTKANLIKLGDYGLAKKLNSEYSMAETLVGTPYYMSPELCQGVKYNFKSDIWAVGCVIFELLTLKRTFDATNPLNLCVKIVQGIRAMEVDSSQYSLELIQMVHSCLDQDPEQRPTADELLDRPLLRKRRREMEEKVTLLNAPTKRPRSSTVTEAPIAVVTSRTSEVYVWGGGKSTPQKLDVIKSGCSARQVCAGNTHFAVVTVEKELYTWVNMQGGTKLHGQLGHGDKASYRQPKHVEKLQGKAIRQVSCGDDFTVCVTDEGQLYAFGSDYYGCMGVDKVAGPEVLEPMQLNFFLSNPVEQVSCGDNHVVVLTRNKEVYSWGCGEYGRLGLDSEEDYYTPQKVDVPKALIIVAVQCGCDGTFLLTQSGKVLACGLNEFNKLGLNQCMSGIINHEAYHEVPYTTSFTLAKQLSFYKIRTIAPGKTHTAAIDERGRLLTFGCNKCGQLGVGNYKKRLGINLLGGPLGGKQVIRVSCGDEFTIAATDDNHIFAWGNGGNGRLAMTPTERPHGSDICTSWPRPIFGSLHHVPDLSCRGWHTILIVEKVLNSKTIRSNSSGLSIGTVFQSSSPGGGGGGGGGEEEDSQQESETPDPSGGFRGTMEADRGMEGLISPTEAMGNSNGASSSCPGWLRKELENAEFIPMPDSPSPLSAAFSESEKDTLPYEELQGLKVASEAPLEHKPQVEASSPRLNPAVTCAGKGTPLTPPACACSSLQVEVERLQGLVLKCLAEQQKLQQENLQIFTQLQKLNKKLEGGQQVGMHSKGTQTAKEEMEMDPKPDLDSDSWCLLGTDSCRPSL
# How it was run: as §1
# PAK6 = target: T23, PAK6 (Homo sapiens, UniProt Q9NQU5)
# T23 construct: purchased Reaction Biology Corporation (Kinase HotSpot)
# How it was run: as §1
# PKCeta = target: T24, PKCeta (Homo sapiens, UniProt P24723)
# T24 construct: purchased Reaction Biology Corporation (Kinase HotSpot)
# T24 sequence (P24723 whole entry): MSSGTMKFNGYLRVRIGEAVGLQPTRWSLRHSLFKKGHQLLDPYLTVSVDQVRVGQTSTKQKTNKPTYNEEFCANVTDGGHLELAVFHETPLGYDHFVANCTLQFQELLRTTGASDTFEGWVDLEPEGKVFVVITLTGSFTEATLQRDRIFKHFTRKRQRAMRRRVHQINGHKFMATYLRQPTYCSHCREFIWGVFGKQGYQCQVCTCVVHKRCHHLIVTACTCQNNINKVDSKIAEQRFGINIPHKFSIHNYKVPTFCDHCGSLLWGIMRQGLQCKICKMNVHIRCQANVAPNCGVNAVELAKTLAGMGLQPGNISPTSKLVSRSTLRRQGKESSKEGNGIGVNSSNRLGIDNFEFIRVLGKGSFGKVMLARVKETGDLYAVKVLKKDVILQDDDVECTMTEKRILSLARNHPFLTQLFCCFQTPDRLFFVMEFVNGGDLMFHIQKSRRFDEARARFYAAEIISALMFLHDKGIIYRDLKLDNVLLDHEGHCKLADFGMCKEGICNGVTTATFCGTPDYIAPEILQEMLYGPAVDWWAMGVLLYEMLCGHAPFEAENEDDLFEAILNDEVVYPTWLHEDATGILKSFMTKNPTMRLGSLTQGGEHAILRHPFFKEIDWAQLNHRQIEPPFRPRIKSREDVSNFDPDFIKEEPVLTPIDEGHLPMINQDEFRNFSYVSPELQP
# How it was run: as §1
# PKG2/PRKG2 = target: T25, PKG2/PRKG2 (Homo sapiens, UniProt Q13237)
# T25 construct: purchased Reaction Biology Corporation (Kinase HotSpot)
# How it was run: as §1
# RIPK5 = target: T26, RIPK5 (Homo sapiens, UniProt Q6XUX3)
# T26 construct: purchased Reaction Biology Corporation (Kinase HotSpot)
# How it was run: as §1
# STK33 = target: T27, STK33 (Homo sapiens, UniProt Q9BYT3)
# T27 construct: purchased Reaction Biology Corporation (Kinase HotSpot)
# T27 sequence (Q9BYT3 whole entry): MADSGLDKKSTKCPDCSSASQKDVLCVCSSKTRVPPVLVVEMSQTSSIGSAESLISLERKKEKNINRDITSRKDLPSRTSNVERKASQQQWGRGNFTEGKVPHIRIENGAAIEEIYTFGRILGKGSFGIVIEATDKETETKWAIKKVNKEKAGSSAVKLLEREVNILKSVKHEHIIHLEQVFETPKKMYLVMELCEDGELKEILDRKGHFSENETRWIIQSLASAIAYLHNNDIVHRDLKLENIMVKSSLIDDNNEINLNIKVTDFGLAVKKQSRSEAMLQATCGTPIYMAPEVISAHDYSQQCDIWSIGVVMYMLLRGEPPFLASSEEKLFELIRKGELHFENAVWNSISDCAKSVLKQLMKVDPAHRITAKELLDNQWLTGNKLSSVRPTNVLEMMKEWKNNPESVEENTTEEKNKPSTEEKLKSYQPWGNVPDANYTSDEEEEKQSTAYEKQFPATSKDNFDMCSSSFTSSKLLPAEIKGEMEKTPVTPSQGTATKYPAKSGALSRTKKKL
# How it was run: as §1
# TYK2 = target: T28, TYK2 (Homo sapiens, UniProt P29597)
# T28 construct: purchased Reaction Biology Corporation (Kinase HotSpot)
# How it was run: as §1
# TYRO3/SKY = target: T29, TYRO3/SKY (Homo sapiens, UniProt Q06418)
# T29 construct: purchased Reaction Biology Corporation (Kinase HotSpot)
# T29 sequence (Q06418 41-890): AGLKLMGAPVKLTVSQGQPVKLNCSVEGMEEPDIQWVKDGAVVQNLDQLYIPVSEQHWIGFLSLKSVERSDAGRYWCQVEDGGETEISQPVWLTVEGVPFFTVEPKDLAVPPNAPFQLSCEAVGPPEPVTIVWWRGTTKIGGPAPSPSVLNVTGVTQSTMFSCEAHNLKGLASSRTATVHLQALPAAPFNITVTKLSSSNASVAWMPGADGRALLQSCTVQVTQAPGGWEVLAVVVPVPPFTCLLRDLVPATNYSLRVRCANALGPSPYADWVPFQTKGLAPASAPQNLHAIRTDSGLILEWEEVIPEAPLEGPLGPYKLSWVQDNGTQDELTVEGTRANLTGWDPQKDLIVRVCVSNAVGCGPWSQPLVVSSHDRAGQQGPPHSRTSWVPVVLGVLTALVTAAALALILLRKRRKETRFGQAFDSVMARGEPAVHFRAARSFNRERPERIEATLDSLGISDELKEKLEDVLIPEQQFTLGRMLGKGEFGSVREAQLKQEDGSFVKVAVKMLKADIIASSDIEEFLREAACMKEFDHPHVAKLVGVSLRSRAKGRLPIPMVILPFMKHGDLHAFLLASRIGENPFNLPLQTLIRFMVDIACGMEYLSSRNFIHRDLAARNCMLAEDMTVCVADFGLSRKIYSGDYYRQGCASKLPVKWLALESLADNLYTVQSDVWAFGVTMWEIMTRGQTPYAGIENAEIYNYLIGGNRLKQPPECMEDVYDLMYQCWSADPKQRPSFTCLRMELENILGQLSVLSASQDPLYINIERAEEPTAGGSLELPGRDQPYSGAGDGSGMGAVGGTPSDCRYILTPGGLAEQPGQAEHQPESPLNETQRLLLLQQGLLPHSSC
# How it was run: as §1
# p70S6K/RPS6KB1 = target: T30, p70S6K/RPS6KB1 (Homo sapiens, UniProt P23443)
# T30 construct: purchased Reaction Biology Corporation (Kinase HotSpot)
# T30 sequence (P23443 whole entry): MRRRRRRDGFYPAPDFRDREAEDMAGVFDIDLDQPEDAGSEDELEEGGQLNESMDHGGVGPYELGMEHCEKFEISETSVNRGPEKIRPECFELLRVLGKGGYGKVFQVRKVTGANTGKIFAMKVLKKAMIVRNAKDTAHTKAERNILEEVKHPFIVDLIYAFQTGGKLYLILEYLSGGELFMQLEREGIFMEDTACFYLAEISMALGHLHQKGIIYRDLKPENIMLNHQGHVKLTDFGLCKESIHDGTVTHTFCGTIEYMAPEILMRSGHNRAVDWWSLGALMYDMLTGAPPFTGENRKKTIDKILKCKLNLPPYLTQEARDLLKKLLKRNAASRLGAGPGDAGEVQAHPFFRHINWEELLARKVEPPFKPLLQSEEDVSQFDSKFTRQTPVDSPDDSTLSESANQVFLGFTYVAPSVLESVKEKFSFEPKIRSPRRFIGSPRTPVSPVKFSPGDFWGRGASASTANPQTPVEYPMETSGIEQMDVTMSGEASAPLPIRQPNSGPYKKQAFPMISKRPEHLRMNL
# How it was run: as §1
structure (smiles),measurement,setting,value
Cc1cnc(N[C@H]2CC[C@H](N)CC2)nc1-c1cnc2ccc(-c3ccccc3)cn12 [CDDD11-8],remaining activity at 1 µM,Aurora A,79.3%
same,remaining activity at 1 µM,CDK17/cyclin Y (PCTK2),34.1%
same,remaining activity at 1 µM,CDK4/cyclin D1,89.3%
same,remaining activity at 1 µM,CHK2,97.2%
same,remaining activity at 1 µM,CK1g2,59.4%
same,remaining activity at 1 µM,CK1g3,63.2%
same,remaining activity at 1 µM,CLK3,85.9%
same,remaining activity at 1 µM,EPHA3,94%
same,remaining activity at 1 µM,EPHA7,105%
same,remaining activity at 1 µM,ERBB2/HER2,101%
same,remaining activity at 1 µM,FER,70%
same,remaining activity at 1 µM,GRK6,98.5%
same,remaining activity at 1 µM,IKKa/CHUK,98.5%
same,remaining activity at 1 µM,JAK2,70%
same,remaining activity at 1 µM,LCK,72.5%
same,remaining activity at 1 µM,MAPKAPK5/PRAK,99.4%
same,remaining activity at 1 µM,MEKK1,103%
same,remaining activity at 1 µM,MLCK/MYLK,57.2%
same,remaining activity at 1 µM,MRCKb/CDC42BPB,79.3%
same,remaining activity at 1 µM,MST1/STK4,8.89%
same,remaining activity at 1 µM,NEK2,90.7%
same,remaining activity at 1 µM,NEK9,84.7%
same,remaining activity at 1 µM,PAK6,96.6%
same,remaining activity at 1 µM,PKCeta,47.3%
same,remaining activity at 1 µM,PKG2/PRKG2,87%
same,remaining activity at 1 µM,RIPK5,93%
same,remaining activity at 1 µM,STK33,70.3%
same,remaining activity at 1 µM,TYK2,93.2%
same,remaining activity at 1 µM,TYRO3/SKY,82.2%
same,remaining activity at 1 µM,p70S6K/RPS6KB1,94.5%
